From patent publication US20220267260A1, “COMPOUNDS CONTAINING A SULFONIC GROUP AS KAT INHIBITORS” (Epizyme, Inc., priority 2016, published 2022)

Key:
[1] = target: T1, KAT6A (Homo sapiens, UniProt Q92794); assay: KAT6A enzyme inhibition assay (SAMDI mass spectrometry); type: biochemical; conditions: His-TEV-KAT6A 501-784 enzyme construct
T1 construct: His-TEV tag (N, cleaved yes); made in house

[2] = target: T2, KAT5 (Homo sapiens, UniProt Q92993); assay: KAT5 enzyme inhibition assay (SAMDI mass spectrometry); type: biochemical; conditions: His-TEV-FL KAT5-Flag enzyme construct
T2 construct: His-TEV tag (N, cleaved yes); made in house
T2 sequence (Q92993 with tags, fused parts or gaps): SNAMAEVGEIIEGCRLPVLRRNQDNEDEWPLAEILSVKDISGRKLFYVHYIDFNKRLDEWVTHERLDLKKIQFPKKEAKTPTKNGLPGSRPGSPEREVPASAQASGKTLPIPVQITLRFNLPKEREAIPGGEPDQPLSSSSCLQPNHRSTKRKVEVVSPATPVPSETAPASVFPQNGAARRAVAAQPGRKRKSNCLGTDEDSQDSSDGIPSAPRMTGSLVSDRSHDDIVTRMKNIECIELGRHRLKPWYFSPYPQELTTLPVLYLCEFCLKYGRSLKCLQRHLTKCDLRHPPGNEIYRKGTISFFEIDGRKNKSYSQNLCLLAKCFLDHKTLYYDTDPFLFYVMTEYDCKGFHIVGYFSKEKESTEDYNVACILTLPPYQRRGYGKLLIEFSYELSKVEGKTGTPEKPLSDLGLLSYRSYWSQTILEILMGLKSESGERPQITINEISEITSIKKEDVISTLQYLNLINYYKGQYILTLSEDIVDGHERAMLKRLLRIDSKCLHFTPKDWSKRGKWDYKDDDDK

T1 sequence (Q92794 with tags, fused parts or gaps): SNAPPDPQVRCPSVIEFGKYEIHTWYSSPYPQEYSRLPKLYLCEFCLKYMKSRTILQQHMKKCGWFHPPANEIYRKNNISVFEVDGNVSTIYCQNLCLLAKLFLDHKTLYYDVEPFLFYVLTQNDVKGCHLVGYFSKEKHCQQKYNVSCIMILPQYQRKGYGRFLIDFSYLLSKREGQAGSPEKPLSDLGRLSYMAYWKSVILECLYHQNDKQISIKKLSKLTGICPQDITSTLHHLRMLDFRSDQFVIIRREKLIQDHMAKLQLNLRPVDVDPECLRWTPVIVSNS

| Structure (SMILES) | IC50 [1] [µM] | IC50 [2] [µM] |
| --- | --- | --- |
| COCC(=O)N1CCC(CS(=O)(=O)NNC(=O)c2cc(-c3ccccc3)cc(C)c2F)C1 (centres unmarked) [Compound I-356] | ≤ 10 | ≤ 10 |
| Cc1cc(-c2cccc(Cl)c2)cc(C(=O)NNS(=O)(=O)c2ccccc2)c1F [Compound I-340] | ≤ 10 | ≤ 10 |
| O=C(NNS(=O)(=O)c1cc(-c2ccccc2)cc(Cl)c1F)c1ccccc1 [Compound I-523] | 10 to 50 | 10 to 50 |
| Cc1cc(-c2ccccc2)cc(C(=O)N2CCC(S(=O)(=O)c3ccccc3)C2)c1F (centres unmarked) [Compound I-73] | > 100 | > 100 |
| CNC(=O)c1cccc(-c2cc(C)c(F)c(C(=O)NNS(=O)(=O)c3ccccc3)c2)c1 [Compound I-415] | ≤ 10 | 10 to 50 |
| Cc1cc(-c2cccc(F)c2)cc(C(=O)NNS(=O)(=O)c2ccccc2)c1F [Compound I-371] | ≤ 10 | ≤ 10 |
| O=C(NNS(=O)(=O)CC1CCCCC1)c1cc(-c2cn3ccccc3n2)cc(Cl)c1F [Compound I-510] | > 100 | ≤ 10 |
| Cc1cc(-c2ccccc2)cc(C(=O)NNS(=O)(=O)c2ccccn2)c1F [Compound I-209] | ≤ 10 | ≤ 10 |
| Cc1cc(-c2ccccc2)cc(C(=O)NNS(=O)(=O)CC2CN(C(=O)OC(C)(C)C)CCO2)c1F (centres unmarked) [Compound I-424] | ≤ 10 | ≤ 10 |
| COCc1cc(Cl)c(F)c(C(=O)NNS(=O)(=O)CC2CCCCC2)c1 [Compound I-437] | ≤ 10 | ≤ 10 |
| O=C(NNS(=O)(=O)c1ccccc1)c1cc(-c2ccccc2)cc(Cl)c1F [Compound I-220] | ≤ 10 | ≤ 10 |
| C=CCn1nc(NNS(=O)(=O)c2ccccc2)c2ccccc21 [Compound I-290] | > 100 | > 100 |
| Cc1cc(-c2cccc(F)c2)cc(C(=O)NNS(=O)(=O)C2CCOC2)c1F (centres unmarked) [Compound I-438] | 10 to 50 | 10 to 50 |
| O=C(NNS(=O)(=O)CC1CCCCC1)c1cc(Cl)cc(Cl)c1F [Compound I-411] | 10 to 50 | ≤ 10 |
| Cc1cc(-c2ccccc2)cc(C(=O)NNS(=O)(=O)C2CCN(CCc3ccccc3)C2)c1F (centres unmarked) [Compound I-36] | 10 to 50 | 10 to 50 |
| Cc1cccc(C(=O)NNS(=O)(=O)c2ccccc2)c1F [Compound I-183] | ≤ 10 | 10 to 50 |
| COc1cccc(-c2cc(C)c(F)c(C(=O)NNS(=O)(=O)c3ccccc3)c2)c1 [Compound I-350] | ≤ 10 | > 100 |
| Cc1cc(-c2ccccc2)cc(C(=O)NNS(=O)(=O)CC2CCCN(C(=O)OC(C)(C)C)C2)c1F (centres unmarked) [Compound I-352] | ≤ 10 | ≤ 10 |
| Cc1cc(-c2cccc(F)c2)cc(C(=O)NNS(=O)(=O)CC2CCCN(C(=O)CCN(C)C)C2)c1F (centres unmarked) [Compound I-329] | 10 to 50 | 10 to 50 |
| COc1cccc(-c2cc(C)c(F)c(C(=O)NNS(=O)(=O)CC3CCCCC3)c2)c1 [Compound I-298] | 10 to 50 | ≤ 10 |
| Cc1cc(-c2cc(F)cc(F)c2)cc(C(=O)NNS(=O)(=O)CC2CCCCC2)c1F [Compound I-355] | 10 to 50 | 10 to 50 |
| O=S(=O)(NNc1n[nH]c2ccc(-c3ccccc3)cc12)c1ccccc1 [Compound I-46] | > 100 | > 100 |

| Structure (SMILES) | IC50 [1] [µM] | IC50 [2] [µM] |
| --- | --- | --- |
| COCCN(C)C(=O)c1cc(Cl)c(F)c(C(=O)NNS(=O)(=O)C2CCOCC2)c1 [Compound I-471] | > 100 | > 100 |
| Cc1cc(-c2ccccc2)cc(C(=O)NNS(=O)(=O)Cc2cccc(Cl)c2)c1F [Compound I-5] | ≤ 10 | ≤ 10 |
| O=C(NNS(=O)(=O)c1ccccc1)c1cc(-c2ccccc2)cc2[nH]cnc12 [Compound I-53] | 10 to 50 | 10 to 50 |
| Cc1cccc(F)c1C(=O)NNS(=O)(=O)CC(Cc1ccccc1)C(C)C (centres unmarked) [Compound I-266] | > 100 | > 100 |
| Cc1cc(-c2ccccc2)cc(C(=O)NNS(=O)(=O)c2cccc(Cl)c2)c1F [Compound I-187] | ≤ 10 | ≤ 10 |
| CCS(=O)(=O)NNC(=O)c1cc(-c2ccccc2)cc(C)c1F [Compound I-2] | 10 to 50 | 10 to 50 |
| Cc1cc(-c2ccccc2)cc(C(=O)NNS(=O)(=O)CC2CCCN(C(=O)CCN(C)C)C2)c1F (centres unmarked) [Compound I-409] | 10 to 50 | 10 to 50 |
| COc1ccccc1CN1CCC(S(=O)(=O)NNC(=O)c2cc(-c3ccccc3)cc(C)c2F)C1 (centres unmarked) [Compound I-25] | 10 to 50 | 10 to 50 |
| Cc1cc(-c2ccc(C(C)C)cc2)cc(C(=O)NNS(=O)(=O)c2ccccc2)c1F [Compound I-384] | ≤ 10 | > 100 |
| CC1CCCC(C)N1C(=O)NNS(=O)(=O)c1ccccc1 (centres unmarked) [Compound I-15] | > 100 | > 100 |
| Cc1cc(-c2cccc(F)c2)cc(C(=O)NNS(=O)(=O)C2CCOCC2)c1F [Compound I-377] | ≤ 10 | ≤ 10 |
| O=C(NNS(=O)(=O)c1ccccc1)c1cccc(Cl)c1F [Compound I-160] | ≤ 10 | 10 to 50 |
| CCN(C)C(=O)N1CCC(CS(=O)(=O)NNC(=O)c2cc(-c3cccc(C)c3)cc(Cl)c2F)C1 (centres unmarked) [Compound I-519] | ≤ 10 | ≤ 10 |
| O=C(NNS(=O)(=O)c1ccccc1)c1cc(-c2ccccc2)ccc1F [Compound I-253] | 10 to 50 | 50 to 100 |
| COc1ccccc1C(=O)NNS(=O)(=O)c1ccccc1 [Compound I-145] | > 100 | > 100 |
| Cc1cc(-c2cccnc2)cc(C(=O)NNS(=O)(=O)c2ccccc2)c1F [Compound I-195] | ≤ 10 | 10 to 50 |
| Cc1nn(Cc2ccccc2)cc1C(=O)NNS(=O)(=O)c1ccccc1 [Compound I-122] | > 100 | > 100 |
| COc1cccc(CN2CCC(S(=O)(=O)NNC(=O)c3cc(-c4ccccc4)cc(C)c3F)C2)c1 (centres unmarked) [Compound I-26] | ≤ 10 | ≤ 10 |
| CC(C)(C)OC(=O)N1CCC(S(=O)(=O)NNC(=O)c2cc(Cl)cc(Cl)c2F)CC1 [Compound I-405] | > 100 | 10 to 50 |
| O=C(NNS(=O)(=O)CC1CCOCC1)c1cc(-c2cccc(F)c2)cc(Cl)c1F [Compound I-397] | ≤ 10 | ≤ 10 |
| Cc1cnc(CNC(=O)c2cc(-c3ccccc3)cc(C)c2F)[nH]1 [Compound I-295] | > 100 | > 100 |
| Cc1cc(F)c(-c2ccccc2)cc1C(=O)NNS(=O)(=O)c1ccccc1 [Compound I-123] | > 100 | > 100 |

Results, then the compound that gave them:

| IC50 [1] [µM] | IC50 [2] [µM] | Structure (SMILES) |
| --- | --- | --- |
| > 100 | > 100 | O=C(NNS(=O)(=O)C1CCCCC1)c1c(F)ccc(-c2ccccc2)c1Cl [Compound I-312] |
| 50 to 100 | > 100 | O=C(NNS(=O)(=O)C1CCCCC1)c1nc(-c2ccccc2)cc(Cl)c1F [Compound I-479] |
| 50 to 100 | 10 to 50 | Cc1cc(-c2ccc(F)cc2)cc(C(=O)NNS(=O)(=O)C2CCCCC2)c1F [Compound I-319] |
| 50 to 100 | 50 to 100 | O=C(NNS(=O)(=O)C1CCCCC1)c1c(F)ccc(-c2ccccc2)c1F [Compound I-364] |
| > 100 | 10 to 50 | CCc1cc(Cl)c(F)c(C(=O)NNS(=O)(=O)C2CCCCC2)c1 [Compound I-420] |
| 10 to 50 | 10 to 50 | COc1cccc(-c2cc(C)c(F)c(C(=O)NNS(=O)(=O)C3CCCCC3)c2)c1 [Compound I-348] |
| 10 to 50 | 50 to 100 | Cc1cc(-c2cccc(F)c2Cl)cc(C(=O)NNS(=O)(=O)CC2CCCCC2)c1F [Compound I-398] |
| > 100 | > 100 | Cc1cc(-c2ccccc2)cc(C(=O)NNS(=O)(=O)C2CC3CCC(C2)N3)c1F (centres unmarked) [Compound I-184] |
| > 100 | > 100 | Cc1ccc(-c2ccccc2)c(F)c1C(=O)NNS(=O)(=O)c1ccccc1 [Compound I-139] |
| > 100 | > 100 | O=C(NNS(=O)(=O)C1CCCCC1)c1ccccc1F [Compound I-116] |
| > 100 | > 100 | Cc1c(-c2ccccc2)ccc(F)c1C(=O)NNS(=O)(=O)C(C)C [Compound I-231] |
| 10 to 50 | 10 to 50 | COc1cc(-c2ccccc2)cc(C(=O)NNS(=O)(=O)C2CCCCC2)c1F [Compound I-315] |
| 10 to 50 | 50 to 100 | O=C(NNS(=O)(=O)C1CCCCC1)c1cc(-c2cc(F)cc(Cl)c2)cc(Cl)c1F [Compound I-490] |
| > 100 | > 100 | O=C(NNS(=O)(=O)c1ccccc1)c1c(F)ccc(-c2ccccc2)c1F [Compound I-10] |
| 10 to 50 | > 100 | O=C(NNS(=O)(=O)c1cccc(Cl)c1)c1c(F)ccc(-c2cn[nH]c2)c1F [Compound I-305] |
| > 100 | 10 to 50 | O=C(NNS(=O)(=O)C1CCCCC1)c1cc(Cl)cc(Cl)c1F [Compound I-413] |
| 50 to 100 | 10 to 50 | Cc1cc(-c2cccc(Cl)c2F)cc(C(=O)NNS(=O)(=O)CC2CCCCC2)c1F [Compound I-366] |
| 10 to 50 | > 100 | Cc1cc(-c2ccccc2)cc(C(=O)NNS(=O)(=O)C2CCCN(C)C2)c1F (centres unmarked) [Compound I-98] |
| 10 to 50 | 10 to 50 | Cc1cc(-c2ccccc2)cc(C(=O)NNS(=O)(=O)C2COC2)c1F [Compound I-55] |
| 10 to 50 | 10 to 50 | COc1cc(F)cc(-c2cc(Cl)c(F)c(C(=O)NNS(=O)(=O)C3CCCCC3)c2)c1 [Compound I-486] |
| > 100 | 10 to 50 | COCCNC(=O)c1cccc(-c2cc(C)c(F)c(C(=O)NNS(=O)(=O)C3CCCCC3)c2)c1 [Compound I-445] |
| > 100 | > 100 | Cc1cccc(F)c1C(=O)NNS(=O)(=O)c1ccccc1 [Compound I-135] |
| 10 to 50 | 10 to 50 | O=C(NNS(=O)(=O)C1CCCCC1)c1cc(-c2cc(Cl)cc(Cl)c2)cc(Cl)c1F [Compound I-487] |
